Results as given in patent US11708344B2, “Flavone derivatives for the treatment and prophylaxis of hepatitis B virus disease” (Hoffmann-La Roche Inc., priority 2018, dated 2023).

What was measured:
[1] = system: HBeAg (surrogate marker for cccDNA) in HepDES19 cells; test: Engineered HepDES19 primary screen assay (HBeAg ELISA); format: cell-based, HBV; conditions: Hepatitis B virus, HepDES19, 120 h, read-out: IC50 (HBeAg level, HepDES19 primary screen assay), HepDES19 cells, 5 days compound incubation, HBeAg ELISA
Method in brief: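 HepDES19 cells were induced by Tet withdrawal for 8 days, then treated with half-log compound dilutions (1% DMSO final) for 5 days at 37 °C. HBeAg was measured by ELISA as the cccDNA surrogate, viability by CCK-8, and IC50 from a 4-parameter logistic fit.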

[2] = system: HBsAg in HBV-infected PHH; test: Cryopreserved primary human hepatocytes (PHH) HBV infection assay, extracellular HBsAg (CLIA); format: cell-based; conditions: Hepatitis B virus, Hepatocyte, 216 h, read-out: HBsAg IC50, Cryopreserved PHH infected with HBV, 9 days post-compound treatment, extracellular HBsAg
Method in brief: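 Cryopreserved PHH were infected with 5.8×10^6 HBV genome equivalents in medium with 4% PEG8000 and 1% DMSO. After 9 days of treatment, extracellular HBsAg was measured by CLIA, and IC50 was derived from a 4-parameter logistic fit.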

[3] = Human microsome stability assay; format: in vitro ADME; conditions: human liver microsomes, 1 μM test compound, 0.5 mg/mL microsomal protein, 37° C., pH 7.4, 0-30 minutes
Method in brief: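 Compound (1 μM) incubated at 37 °C with human liver microsomes (0.5 mg/mL protein) in 100 mM potassium phosphate, pH 7.4, after 10 min preincubation; started with NADPH regenerating system. Sampled at 0–30 min, quenched with cold ACN; remaining parent quantified by LC-MS/MS, with no-NADPH controls.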

SMILES: CCCOc1cc(OCCO[C@H]2C[C@@H](C(=O)O)C2)c(-c2cc(=O)c3cccc(Cl)c3o2)cc1OC [Example C077, Cis-3-[2-[2-(8-chloro-4-oxo-chromen-2-yl)-4-methoxy-5-propoxy-phenoxy]ethoxy]cyclobutanecarboxylic acid]
- IC50 [1]: 3.21 µM
- IC50 [2]: 9.37 µM
- Clearance of Human microsome [3]: 6.15 mL/min/kg

SMILES: CCOc1cc(OCCO[C@H]2C[C@@H](C(=O)O)C2)c(-c2cc(=O)c3cccc(Cl)c3o2)cc1OC [Example C078, Cis-3-[2-[2-(8-chloro-4-oxo-chromen-2-yl)-5-ethoxy-4-methoxy-phenoxy]ethoxy]cyclobutanecarboxylic acid]
- IC50 [1]: 15 µM
- IC50 [2]: 6.32 µM
- Clearance of Human microsome [3]: 6.15 mL/min/kg

SMILES: COc1cc(-c2cc(=O)c3cccc(Cl)c3o2)c(OCCO[C@H]2C[C@@H](C(=O)O)C2)cc1OCC(F)(F)F [Example C080, Cis-3-[2-[2-(8-chloro-4-oxo-chromen-2-yl)-4-methoxy-5-(2,2,2-trifluoroethoxy)phenoxy]ethoxy]cyclobutanecarboxylic acid]
- IC50 [1]: 4 µM
- IC50 [2]: 3.51 µM
- Clearance of Human microsome [3]: 6.15 mL/min/kg

SMILES: COc1cc(-c2cc(=O)c3cccc(Cl)c3o2)c(OCCO[C@H]2C[C@@H](C(=O)O)C2)cc1OC(F)F [Example C081, Cis-3-[2-[2-(8-chloro-4-oxo-chromen-2-yl)-5-(difluoromethoxy)-4-methoxy-phenoxy]ethoxy]cyclobutanecarboxylic acid]
- IC50 [1]: 0.779 µM
- IC50 [2]: 8.77 µM
- Clearance of Human microsome [3]: 6.15 mL/min/kg

SMILES: COc1cc(OCCO[C@H]2C[C@@H](C(=O)O)C2)c(-c2cc(=O)c3cccc(Cl)c3o2)cc1OCC1CC1 [Example C082, cis-3-[2-[2-(8-chloro-4-oxo-chromen-2-yl)-4-(cyclopropylmethoxy)-5-methoxy-phenoxy]ethoxy]cyclobutanecarboxylic acid]
- IC50 [1]: 3.97 µM
- IC50 [2]: 9.52 µM
- Clearance of Human microsome [3]: 6.15 mL/min/kg

SMILES: CCOc1cc(-c2cc(=O)c3cccc(Cl)c3o2)c(OCCO[C@H]2C[C@@H](C(=O)O)C2)cc1OC [Example C084, cis-3-[2-[2-(8-chloro-4-oxo-chromen-2-yl)-4-ethoxy-5-methoxy-phenoxy]ethoxy]cyclobutanecarboxylic acid]
- IC50 [1]: 15.1 µM
- IC50 [2]: 5.21 µM
- Clearance of Human microsome [3]: 6.15 mL/min/kg

SMILES: COc1cc(OCCO[C@H]2C[C@@H](C(=O)O)C2)c(-c2cc(=O)c3cccc(Cl)c3o2)cc1OCC(F)(F)F [Example C085, cis-3-[2-[2-(8-chloro-4-oxo-chromen-2-yl)-5-methoxy-4-(2,2,2-trifluoroethoxy)phenoxy]ethoxy]cyclobutanecarboxylic acid]
- IC50 [1]: 0.271 µM
- IC50 [2]: 9.02 µM
- Clearance of Human microsome [3]: 6.15 mL/min/kg

SMILES: COc1cc(OCCO[C@H]2C[C@@H](C(=O)O)C2)c(-c2cc(=O)c3cccc(Cl)c3o2)cc1OC(F)F [Example C086, cis-3-[2-[2-(8-chloro-4-oxo-chromen-2-yl)-4-(difluoromethoxy)-5-methoxy-phenoxy]ethoxy]cyclobutanecarboxylic acid]
- IC50 [1]: 5.03 µM
- IC50 [2]: 5.46 µM
- Clearance of Human microsome [3]: 6.15 mL/min/kg

SMILES: COc1cc(OCCO[C@H]2C[C@@H](C(=O)O)C2)c(-c2cc(=O)c3c(C(F)(F)F)ccc(Cl)c3o2)cc1OC [Example C096, Cis-3-[2-[2-[8-chloro-4-oxo-5-(trifluoromethyl)chromen-2-yl]-4,5-dimethoxy-phenoxy]ethoxy]cyclobutanecarboxylic acid]
- IC50 [1]: 3.48 µM
- IC50 [2]: 7.78 µM
- Clearance of Human microsome [3]: 6.15 mL/min/kg

SMILES: O=C(O)C1CC(OCCCOc2cc(C(F)(F)F)ccc2-c2cc(=O)c3cccc(Cl)c3o2)C1 (stereo not drawn) [Example C103, 3-[3-[2-(8-chloro-4-oxo-chromen-2-yl)-5-(trifluoromethyl)phenoxy]propoxy]cyclobutanecarboxylic acid]
- IC50 [1]: 2.28 µM
- IC50 [2]: 7.56 µM
- Clearance of Human microsome [3]: 6.15 mL/min/kg

SMILES: O=C(O)COCC(O)COc1cc(Br)ccc1-c1cc(=O)c2cccc(Cl)c2o1 (stereo not drawn) [Example C113, 2-[3-[5-bromo-2-(8-chloro-4-oxo-chromen-2-yl)phenoxy]-2-hydroxy-propoxy]acetic acid]
- IC50 [1]: 1.28 µM
- IC50 [2]: 8.89 µM
- Clearance of Human microsome [3]: 6.15 mL/min/kg

SMILES: COc1cc(OCCO[C@H]2C[C@@H](C(=O)NS(=O)(=O)C3CC3)C2)c(-c2cc(=O)c3cccc(Cl)c3o2)cc1OC [Example C119, Cis-3-[2-[2-(8-chloro-4-oxo-chromen-2-yl)-4,5-dimethoxy-phenoxy]ethoxy]-N-cyclopropylsulfonyl-cyclobutanecarboxamide]
- IC50 [1]: 3.48 µM
- IC50 [2]: 7.21 µM
- Clearance of Human microsome [3]: 6.39 mL/min/kg

SMILES: CS(=O)(=O)NC(=O)COCCOc1cc(C(F)(F)F)ccc1-c1cc(=O)c2cccc(Cl)c2o1 [Example C120, 2-[2-[2-(8-chloro-4-oxo-chromen-2-yl)-5-(trifluoromethyl)phenoxy]ethoxy]-N-methylsulfonyl-acetamide]
- IC50 [1]: 1.05 µM
- IC50 [2]: 4.12 µM
- Clearance of Human microsome [3]: 6.15 mL/min/kg

SMILES: CS(=O)(=O)NC(=O)[C@H]1C[C@@H](OCCOc2cc(Br)ccc2-c2cc(=O)c3cccc(Cl)c3o2)C1 [Example C122, Cis-3-[2-[5-bromo-2-(8-chloro-4-oxo-chromen-2-yl)phenoxy]ethoxy]-N-methylsulfonyl-cyclobutanecarboxamide]
- IC50 [1]: 1.05 µM
- IC50 [2]: 4.81 µM
- Clearance of Human microsome [3]: 7.32 mL/min/kg

SMILES: COc1cc(OCCO[C@H]2C[C@@H](C(=O)NS(C)(=O)=O)C2)c(-c2cc(=O)c3cccc(Cl)c3o2)cc1OC [Example C125, 3-[2-[2-(8-chloro-4-oxo-chromen-2-yl)-4,5-dimethoxy-phenoxy]ethoxy]-N-methylsulfonyl-cyclobutanecarboxamide]
- IC50 [1]: 4.91 µM
- IC50 [2]: 7.17 µM
- Clearance of Human microsome [3]: 6.15 mL/min/kg
